The record followed here is the NIST ThermoML archive (doi:10.1021/je301122r).

The refractive index is the speed of light in vacuum divided by its phase velocity in the sample. The term mass density denotes the mass of a sample divided by its volume.

Each structure is given as a SMILES string. ± gives the expanded uncertainty stated by the source.

Series [1] is described as follows: refractive index (Na D-line) (dimensionless). To be noted: 293.15 K; 101.33 kPa; Liquid; Standard Abbe refractometry.
For series [2] the following is noted: 293.15 K; 101.33 kPa; Liquid; Vibrating tube method.

For `Cc1ccc(C)c(C)c1` [1,2,4-trimethylbenzene], the refractive index in series [1] came to 1.5047 ± 0.0007. For the same compound, in series [2], the mass density is 875.78 ± 0.13 kg/m3.

Take `CCc1ccccc1C` [1-ethyl-2-methylbenzene]: the refractive index in series [1] worked out at 1.5045 ± 0.0007. The mass density in series [2] stood at 880.66 ± 0.13 kg/m3.
